Paper PMC8351955, “Targeting Mycobacterium tuberculosis response to environmental cues for the development of effective antitubercular drugs” (PLoS Biology, 2021)
Where two headings read alike, the source gives them in different places.

Tests used:
[1] = test system: CDC1551(rv1405c′::GFP) reporter Mtb strain; assay: microbe, parasite or virus in culture; format: cell-based, Mycobacterium tuberculosis; conditions: Mycobacterium tuberculosis; for activity at 10 µM: read-out: rv1405c'::GFP secondary assay NPA% at 10 µM compound; for activity at 20 µM: read-out: rv1405c'::GFP secondary assay NPA% at 20 µM compound
[2] = test system: CDC1551(rv2390c′::GFP) reporter Mtb strain, response to high [Cl−]; assay: microbe, parasite or virus in culture; format: cell-based, Mycobacterium tuberculosis; conditions: Mycobacterium tuberculosis, 144 h; for activity at 20 µM: read-out: rv2390c'::GFP validation assay NPA% at 20 µM compound
[3] = pH 6.4, […], DMSO positive control = 100%, read-out: Primary screen rv2390c'::GFP NPA%
[4] = 10 µM, pH 6.4, 250 mM NaCl, 6 days, read-out: rv2390c'::GFP validation assay NPA% at 10 µM compound

SMILES | activity at 10 µM [1] | activity at 20 µM [1] | activity at 10 µM [2, 3] | activity at 10 µM [2, 4] | activity at 20 µM ([2]; pH 6.4, 250 mM NaCl, 6 days)
CC(OC(=O)CC(C)(C)C)c1nc2cc(Cl)ccc2n1C (stereo not shown) [RU-0203619, CC(OC(=O)CC(C)(C)C)C1=NC2=C(C=CC(Cl)=C2)N1C] | 75.6 ± 6.2% | 96.6 ± 5.5% | 153% | 95.6 ± 13.8% | 131 ± 11%
CCOC(=O)C(C)Sc1nc2c(cnn2-c2ccccc2)c(=O)[nH]1 (stereo not shown) [RU-0212119, CCOC(=O)C(C)SC1=NC2=C(C=NN2C2=CC=CC=C2)C(=O)N1] | 33.4 ± 2.2% | 14.5 ± 3.4% | 34.7% | 48.1 ± 4.6% | 40.2 ± 4.8%
COCCOc1ccc(NS(=O)(=O)c2cn(C)c(Cl)n2)cn1 [RU-0203727, COCCOC1=NC=C(NS(=O)(=O)C2=CN(C)C(Cl)=N2)C=C1] | 330 ± 19.1% | 996 ± 23.7% | 277% | 168 ± 16.8% | 309 ± 6.8%
OCC(CNc1nc(N2CCCC2)nc(N2CCCC2)n1)Cc1ccco1 (stereo not shown) [RU-0198952, OCC(CNC1=NC(=NC(=N1)N1CCCC1)N1CCCC1)CC1=CC=CO1] | 171 ± 12.8% | 380 ± 28.2% | 170% | 123 ± 7.8% | 194 ± 15.6%
Clc1cccc2ccc(CN3CCn4cncc4C3)nc12 [RU-0247165, ClC1=C2N=C(CN3CCN4C=NC=C4C3)C=CC2=CC=C1] | 226 ± 14.7% | 688.7 ± 3.5% | 219% | 132 ± 7.5% | 317 ± 6.7%
Cn1ccc(C(=O)Nc2nc(Sc3ccccc3)ns2)cc1=O [RU-0206593, CN1C=CC(=CC1=O)C(=O)NC1=NC(SC2=CC=CC=C2)=NS1] | 42 ± 9.6% | 38.3 ± 17.6% | 42.6% | 39.2 ± 6.9% | 22.7 ± 6.8%
CC(C)Cc1cc(C(=O)N2CCOC(CCCc3ccccc3)C2)[nH]n1 (stereo not shown) [RU-0230474, CC(C)CC1=NNC(=C1)C(=O)N1CCOC(CCCC2=CC=CC=C2)C1] | 98.4 ± 7.5% | 172 ± 14.2% | 198% | 118 ± 12.7% | 229 ± 26.9%
Cc1ccccc1OCC(=O)NCc1ccc(C)n1C [RU-0272839, CN1C(C)=CC=C1CNC(=O)COC1=C(C)C=CC=C1] | 93 ± 7.6% | 104 ± 5.9% | 215% | 161 ± 13.6% | 204 ± 5.5%
CCc1ccc(NC(=O)C2(N(C)C)Cc3ccccc3C2)cc1 [RU-0276433, CCC1=CC=C(NC(=O)C2(CC3=C(C2)C=CC=C3)N(C)C)C=C1] | 171 ± 9.3% | 312 ± 25.3% | 157% | 124 ± 10.1% | 186 ± 4.9%
CSc1nc2nc3c(cc2c(=O)[nH]1)C(O)Oc1ccc(C)cc1-3 (stereo not shown) [RU-0183239, CSC1=NC2=C(C=C3C(O)OC4=C(C=C(C)C=C4)C3=N2)C(=O)N1] | 53.9 ± 4.3% | 12.9 ± 5.2% | 49.5% | 49.2 ± 4.2% | 33.7 ± 1.8%
Cc1oc(C(=O)Nc2nnc(C(F)(F)F)[nH]2)cc1S(=O)(=O)N1CCCC1 [RU-0213804, CC1=C(C=C(O1)C(=O)NC1=NN=C(N1)C(F)(F)F)S(=O)(=O)N1CCCC1] | 39.8 ± 7.2% | 21.3 ± 6% | 31.2% | 54.8 ± 1.2% | 42.3 ± 1%
Cn1cc(CCC(=O)Nc2ccc3c(c2)S(=O)(=O)C=C3)cn1 [RU-0278569, CN1C=C(CCC(=O)NC2=CC3=C(C=CS3(=O)=O)C=C2)C=N1] | 74.5 ± 5.4% | 76.5 ± 4.9% | 47.1% | 80.9 ± 7.4% | 63.4 ± 5.6%
OC1(c2ccccc2)CCN(Cc2cnc3c(-c4ccccc4)cnn3c2)CC1 [RU-0224846, OC1(CCN(CC2=CN3N=CC(=C3N=C2)C2=CC=CC=C2)CC1)C1=CC=CC=C1] | 101 ± 18% | 140 ± 37.5% | 153% | 118 ± 10.8% | 159 ± 15.9%
Cc1cc(C(C)C(=O)Nc2ccc(N3CCN(C)CC3)cn2)c(C)o1 (stereo not shown) [RU-0182922, CC(C(=O)NC1=NC=C(C=C1)N1CCN(C)CC1)C1=C(C)OC(C)=C1] | 96.9 ± 6.7% | 106 ± 5.2% | 174% | 139 ± 18.3% | 164 ± 13.6%
CC(=O)N1N=C(c2c(-c3ccccc3)c3ccc(C)cc3[nH]c2=O)CC1c1ccco1 (stereo not shown) [RU-0204568, CC(=O)N1N=C(CC1C1=CC=CO1)C1=C(C2=CC=CC=C2)C2=C(NC1=O)C=C(C)C=C2] | 102 ± 12.9% | 116 ± 27.3% | 162% | 125 ± 9.5% | 198 ± 21%
CC(C)(C)n1cc(C#N)c(NS(=O)(=O)c2cccc(F)c2)n1 [RU-0277089, CC(C)(C)N1C=C(C#N)C(NS(=O)(=O)C2=CC(F)=CC=C2)=N1] | 43.2 ± 4.1% | 17.4 ± 5.4% | 45.4% | 51.2 ± 5.5% | 28.2 ± 0.7%

SMILES | activity at 10 µM [1] | activity at 20 µM [1] | activity at 10 µM [2, 3] | activity at 10 µM [2, 4] | activity at 20 µM ([2]; pH 6.4, 250 mM NaCl, 6 days)
CCNC(=O)c1ccccc1OCc1nc(-c2ccc3c(c2)OCO3)no1 [RU-0257147, CCNC(=O)C1=C(OCC2=NC(=NO2)C2=CC3=C(OCO3)C=C2)C=CC=C1] | 82 ± 5.5% |  | 154% | 92.6 ± 5.8% | 127 ± 7.2%
COc1ccc(COc2ccccc2NC(C)=O)cc1Br [RU-0277875, COC1=C(Br)C=C(COC2=C(NC(C)=O)C=CC=C2)C=C1] | 139 ± 5.6% | 199 ± 12.2% | 175% | 138 ± 7.5% | 229 ± 11.9%
CC(NC(=O)c1cc(Cl)ccc1NS(C)(=O)=O)c1ccc2c(c1)OCO2 (stereo not shown) [RU-0202213, CC(NC(=O)C1=C(NS(C)(=O)=O)C=CC(Cl)=C1)C1=CC2=C(OCO2)C=C1] | 89.3 ± 18.6% | 119 ± 13.2% | 195% | 152 ± 9.2% | 181 ± 5.7%
CCOC(=O)c1nnc(NC(=O)c2cc(Cl)cc(Cl)c2)s1 [RU-0203287, CCOC(=O)C1=NN=C(NC(=O)C2=CC(Cl)=CC(Cl)=C2)S1] | 99 ± 5.3% | 111 ± 11.8% | 174% | 118 ± 12.5% | 138 ± 17%
CCOC(=O)N1C/C(=C/c2cccc(O)c2)C(=O)/C(=C/c2cccc(O)c2)C1 [RU-0202273, CCOC(=O)N1C\C(=C\C2=CC(O)=CC=C2)C(=O)\C(C1)=C\C1=CC(O)=CC=C1] | 84.5 ± 18.2% | 158 ± 19.3% | 154% | 113 ± 3.2% | 117 ± 11%
COc1ccc(F)c(-c2cc3c(cc2C(N)=O)OCO3)c1 [RU-0251853, COC1=CC(=C(F)C=C1)C1=CC2=C(OCO2)C=C1C(N)=O] | 147 ± 32% | 296 ± 65.4% | 182% | 147 ± 6.1% | 276 ± 8%
Cn1cccc1C(=O)NS(=O)(=O)c1ccc(C#N)c(Cl)c1 [RU-0207640, CN1C=CC=C1C(=O)NS(=O)(=O)C1=CC(Cl)=C(C=C1)C#N] | 175 ± 20% | 357 ± 29.5% | 177% | 148 ± 12.2% | 203 ± 22.6%
COCCCC(=O)Nc1cccc(NC2CCCC2)c1 [RU-0215502, COCCCC(=O)NC1=CC(NC2CCCC2)=CC=C1] | 342 ± 33.3% | 804 ± 46.8% | 216% | 152 ± 5% | 276 ± 16.4%
COc1ccc(Cl)cc1-c1cc(NC(=O)c2c(C)noc2C)[nH]n1 [RU-0210243, COC1=C(C=C(Cl)C=C1)C1=NNC(NC(=O)C2=C(C)ON=C2C)=C1] | 342.7 ± 3.1% | 737 ± 25.3% | 254% | 211 ± 11.6% | 357 ± 20%
COC(=O)c1sc(NS(=O)(=O)c2ccc(S(C)(=O)=O)c(F)c2)nc1C [RU-0208648, COC(=O)C1=C(C)N=C(NS(=O)(=O)C2=CC(F)=C(C=C2)S(C)(=O)=O)S1] | 45.2 ± 2.1% | 13.7 ± 2.5% | 36.7% | 55.2 ± 3.9% | 38.5 ± 6.3%
COc1ccc2c(c1)OCC(C(=O)C(C#N)c1nc3ccccc3o1)C2 (stereo not shown) [RU-0202553, COC1=CC2=C(CC(CO2)C(=O)C(C#N)C2=NC3=C(O2)C=CC=C3)C=C1] | 136 ± 12.3% | 402 ± 46.5% | 189% | 131 ± 13.6% | 249 ± 22.5%
COc1ccc2c(CN3CCOCC(CN(C)C)C3)cn(C)c2c1 (stereo not shown) [RU-0260647, COC1=CC=C2C(CN3CCOCC(CN(C)C)C3)=CN(C)C2=C1] | 112 ± 2.5% | 130 ± 3.6% | 162% | 114 ± 3.2% | 130 ± 7.6%
NC(=O)c1cc2c(cc1-c1cccc(C(F)(F)F)c1)OCO2 [RU-0234167, NC(=O)C1=CC2=C(OCO2)C=C1C1=CC=CC(=C1)C(F)(F)F] | 201 ± 15% | 291 ± 18.7% | 343% | 221 ± 6.7% | 383 ± 10.4%
Cc1ccc(NC(=O)[C@@H]2CCCN2S(=O)(=O)c2ccccc2F)cc1 [RU-0270461, CC1=CC=C(NC(=O)[C@@H]2CCCN2S(=O)(=O)C2=C(F)C=CC=C2)C=C1] | 98.1 ± 2.7% | 159 ± 7.6% | 151% | 116 ± 6.6% | 168 ± 4%
O=C(O)c1cc(-c2ccc(N3CCOCC3)cc2)nn1-c1ccc(F)cc1 [RU-0206470, OC(=O)C1=CC(=NN1C1=CC=C(F)C=C1)C1=CC=C(C=C1)N1CCOCC1] | 104 ± 4.5% | 158 ± 23.6% | 157% | 111 ± 10.3% | 165 ± 15.9%
